In ChEMBL document CHEMBL3779863, “Ionic liquid-promoted one-pot synthesis of thiazoleimidazo[2,1-b][1,3,4]thiadiazole hybrids and their antitubercular activity” (Medchemcomm, 2016):
In brackets after ≈: the same amount, converted by molar mass.

Tested on: Mycobacterium tuberculosis
Test: Antimycobacterial activity against extensively drug resistant Mycobacterium tuberculosis H37Rv ATCC 27294 after 28 days by agar dilution method
Assay type: functional
Settings: H37Rv ATCC 27294, 672 h

Row | SMILES | MIC [µM]
1 | Cc1ccc(-c2csc(N/N=C/c3c(-c4ccc(Cl)cc4)nc4sc(C(F)(F)F)nn34)n2)cc1 | 6.03 (≈ 3.13 µg/mL)
2 | COc1ccc(-c2nc3sc(C)nn3c2/C=N/Nc2nc(-c3ccc(F)cc3)cs2)cc1 | 108 (≈ 50 µg/mL)
3 | Cc1ccc(-c2nc3sc(C)nn3c2/C=N/Nc2nc(-c3ccc(F)cc3)cs2)cc1 | 13.9 (≈ 6.25 µg/mL)
4 | Cc1ccc(-c2nc3sc(C)nn3c2/C=N/Nc2nc(-c3ccc(Cl)cc3)cs2)cc1 | 53.9 (≈ 25 µg/mL)
5 | COc1ccc(-c2nc3sc(C(F)(F)F)nn3c2/C=N/Nc2nc(-c3ccc(F)cc3)cs2)cc1 | 24.1 (≈ 12.5 µg/mL)
6 | COc1ccc(-c2nc3sc(C(F)(F)F)nn3c2/C=N/Nc2nc(-c3ccc(C)cc3)cs2)cc1 | 24.1 (≈ 12.4 µg/mL)
7 | Cc1ccc(-c2csc(N/N=C/c3c(-c4ccc(Cl)cc4)nc4sc(C)nn34)n2)cc1 | 108 (≈ 50.1 µg/mL)
8 | COc1ccc(-c2csc(N/N=C/c3c(-c4ccc(C)cc4)nc4sc(C)nn34)n2)cc1 | 109 (≈ 50 µg/mL)
9 | Cc1ccc(-c2csc(N/N=C/c3c(-c4ccc(C)cc4)nc4sc(C)nn34)n2)cc1 | 56.3 (≈ 25 µg/mL)
10 | COc1ccc(-c2csc(N/N=C/c3c(-c4ccc(OC)cc4)nc4sc(C)nn34)n2)cc1 | 105 (≈ 50 µg/mL)
11 | O=C(O)c1cn(C2CC2)c2cc(N3CCNCC3)c(F)cc2c1=O [CIPROFLOXACIN] | 9.44 (≈ 3.13 µg/mL)
12 | COc1ccc(-c2nc3sc(C(F)(F)F)nn3c2/C=N/Nc2nc(-c3ccc(Cl)cc3)cs2)cc1 | 93.6 (≈ 50.1 µg/mL)
13 | Cc1nn2c(/C=N/Nc3nc(-c4ccc(Cl)cc4)cs3)c(-c3ccc(Cl)cc3)nc2s1 | 103 (≈ 50 µg/mL)
14 | NNC(=O)c1ccncc1 [ISONIAZID] | 0.729 (≈ 0.1 µg/mL)
15 | COc1ccc(-c2nc3sc(C)nn3c2/C=N/Nc2nc(-c3ccc(C)cc3)cs2)cc1 | 109 (≈ 50 µg/mL)
16 | Cc1nn2c(/C=N/Nc3nc(-c4ccc(F)cc4)cs3)c(-c3ccc(Cl)cc3)nc2s1 | 53.9 (≈ 25.3 µg/mL)
17 | COc1ccc(-c2nc3sc(C)nn3c2/C=N/Nc2nc(-c3ccc(Cl)cc3)cs2)cc1 | 26 (≈ 12.5 µg/mL)
18 | CC[C@@H](CO)NCCN[C@@H](CC)CO [ETHAMBUTOL] | 15.3 (≈ 3.13 µg/mL)
19 | Fc1ccc(-c2csc(N/N=C/c3c(-c4ccc(Cl)cc4)nc4sc(C(F)(F)F)nn34)n2)cc1 | 12 (≈ 6.26 µg/mL)
20 | COc1ccc(-c2nc3sc(C)nn3c2/C=N/Nc2nc(-c3ccc([N+](=O)[O-])cc3)cs2)cc1 | 12.7 (≈ 6.25 µg/mL)
21 | O=[N+]([O-])c1ccc(-c2csc(N/N=C/c3c(-c4ccc(Cl)cc4)nc4sc(C(F)(F)F)nn34)n2)cc1 | 91.1 (≈ 50.1 µg/mL)
22 | COc1ccc(-c2csc(N/N=C/c3c(-c4ccc(OC)cc4)nc4sc(C(F)(F)F)nn34)n2)cc1 | 94.3 (≈ 50 µg/mL)
23 | COc1ccc(-c2csc(N/N=C/c3c(-c4ccc(Cl)cc4)nc4sc(C)nn34)n2)cc1 | 52.1 (≈ 25 µg/mL)
24 | FC(F)(F)c1nn2c(/C=N/Nc3nc(-c4ccc(Cl)cc4)cs3)c(-c3ccc(Cl)cc3)nc2s1 | 92.9 (≈ 50.1 µg/mL)
25 | Cc1ccc(-c2nc3sc(C)nn3c2/C=N/Nc2nc(-c3ccc([N+](=O)[O-])cc3)cs2)cc1 | 26.3 (≈ 12.5 µg/mL)
26 | COc1ccc(-c2csc(N/N=C/c3c(-c4ccc(Cl)cc4)nc4sc(C(F)(F)F)nn34)n2)cc1 | 11.7 (≈ 6.26 µg/mL)
